Data reported in PMC6774072, “Azologization and repurposing of a hetero-stilbene-based kinase inhibitor: towards the design of photoswitchable sirtuin inhibitors” (Beilstein Journal of Organic Chemistry, 2019).
Where “and” joins values, the source holds several entries; their conditions need not be identical. Equal entries are not always repeated. One block for each compound: values may come before it.

Assays:
Sirt1 = biological target: T1, Sirt1 (Homo sapiens, UniProt Q96EB6); test: fluorescence-based deacetylase assay with Z-Lys(acetyl)-AMC (ZMAL) substrate; format: biochemical; conditions: for Sirt1 inhibition: n.i. = no inhibition detected, tested at 100 µM, 50 µM and 10 µM
T1 construct: Expression and purification of Sirt1_133-747; made in house
T1 sequence (Q96EB6 133-747): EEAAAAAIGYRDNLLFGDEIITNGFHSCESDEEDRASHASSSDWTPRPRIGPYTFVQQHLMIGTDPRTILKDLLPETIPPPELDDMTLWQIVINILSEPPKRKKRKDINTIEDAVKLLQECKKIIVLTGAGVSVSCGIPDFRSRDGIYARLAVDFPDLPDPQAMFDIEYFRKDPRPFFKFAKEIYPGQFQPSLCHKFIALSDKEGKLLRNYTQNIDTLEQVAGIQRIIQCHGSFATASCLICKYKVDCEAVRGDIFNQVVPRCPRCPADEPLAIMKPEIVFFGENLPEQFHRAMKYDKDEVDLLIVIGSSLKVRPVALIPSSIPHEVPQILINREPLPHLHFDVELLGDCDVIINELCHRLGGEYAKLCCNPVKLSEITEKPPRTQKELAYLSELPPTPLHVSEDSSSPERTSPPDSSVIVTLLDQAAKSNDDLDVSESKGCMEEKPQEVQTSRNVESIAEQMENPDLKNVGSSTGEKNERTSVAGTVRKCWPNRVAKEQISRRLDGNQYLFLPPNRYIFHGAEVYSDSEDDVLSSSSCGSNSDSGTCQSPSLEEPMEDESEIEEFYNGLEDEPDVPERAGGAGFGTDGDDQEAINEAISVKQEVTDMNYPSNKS
Protocol: (§1) The influence on deacetylase activity of three human sirtuin isoforms (Sirt1–3) was determined in a fluorescence-based assay, using Z-Lys(acetyl)-AMC (ZMAL) as a substrate. Compared to the lead structure 2a, all compounds except 2e–h show increased inhibitory activity against Sirt2 (Table 1). […] Moreover, a slight increase in selectivity for Sirt2 and Sirt3 over Sirt1 could be observed for 2c, 4a and 4b. […] Though not photoswitchable, compounds 4a and 4b were synthesized to test the influence of a rigid conformation around the C=C double bond on sirtuin inhibition. […] A recently developed fluorescence polarization (FP)-based assay enables mapping of ligand binding to this specific binding site. For 2a an interaction with the selectivity pocket was already implied in the same work. Additionally performed docking studies proposed a binding mode in which 2a mimics the nicotinamide residue of NAD^+, whereas aromatic amino acid residues of the selectivity pocket stabilize the dimethylphenol ring. As photoisomerization in stilbenes and azo dyes is accompanied by a perpendicular twist of the phenyl ring towards the former molecular plane, we assumed that this conformational change should provoke a differential binding situation at least for the dimethylphenol residue in 2a. Unfortunately, binding of 2b and c could not be localised in the vicinity of the selectivity pocket of Sirt2, so that the binding pose remains unclear.
(§2) The photoswitchable diazeno compound 11 was subjected to biological evaluation to test the effect of photoisomerization on the inhibitory activity. The enzyme assay mixture containing 11 was exposed to 5 minutes of 365 nm radiation and compared with the results of a non-irradiated measurement. […] Unfortunately, 365 nm radiation turned out to have only minor effects on the IC50 values of 11 (Table 3).
(§3) Cloning, expression and purification of recombinant proteins: Expression and purification of Sirt1_133-747, Sirt2_56−356, and Sirt3_118−395 was carried out as described previously. Identity and purity were verified by SDS-PAGE [65]. Protein concentration was determined by the Bradford assay.
(§4) Bioassay: The inhibitory effect of compounds 2a–h, 4a/b, 8a and 11 on Sirt1–3 was detected via a previously reported fluorescence based assay. The synthetic substrate Z-Lys(acetyl)-AMC (ZMAL) is deacetylated by sirtuins, followed by tryptic digestion and thereby release of […], leading to a fluorescent readout. Inhibition was determined by comparing percentage substrate conversion to a DMSO control after subtraction of the blank fluorescence signal. All compounds were tested at 100 µM, 50 µM and 10 µM, respectively. […] IC50 values were calculated with OriginPro 9.0 G using a non-linear regression to fit the dose response curve. An enzyme-free blank control and a 100% conversion control using AMC instead of ZMAL were measured as well. Inhibition measurements were performed in biological duplicates for all compounds.

Sirt2 = biological target: T2, Sirt2 (Homo sapiens, UniProt Q8IXJ6); test: as above; format: biochemical; conditions: for inhibition at 10 µM / inhibition at 50 µM: percent inhibition relative to controls; for IC50: mean ± SD of duplicate experiments, read-out: Sirt2 inhibition IC50
T2 construct: Sirt2_56−356; made in house
T2 sequence (Q8IXJ6 56-356): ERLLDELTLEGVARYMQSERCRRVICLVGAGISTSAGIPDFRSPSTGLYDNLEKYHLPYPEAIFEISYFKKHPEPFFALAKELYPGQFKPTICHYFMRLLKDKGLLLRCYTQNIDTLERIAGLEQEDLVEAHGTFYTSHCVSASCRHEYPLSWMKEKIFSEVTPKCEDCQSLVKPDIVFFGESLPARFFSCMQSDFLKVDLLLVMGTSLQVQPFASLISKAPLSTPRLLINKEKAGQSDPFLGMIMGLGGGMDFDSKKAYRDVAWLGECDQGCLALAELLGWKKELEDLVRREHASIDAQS
Protocol: as §1, §2, §3, §4

Sirt3 = biological target: T3, Sirt3 (Homo sapiens, UniProt Q9NTG7); test: as above; format: biochemical; conditions: for Sirt3 inhibition: n.i. = no inhibition detected, tested at 100 µM, 50 µM and 10 µM; for inhibition at 50 µM / inhibition at 10 µM: percent inhibition relative to controls; for IC50: mean ± SD of duplicate experiments, read-out: Sirt3 inhibition IC50
T3 construct: Sirt3_118−395; made in house
T3 sequence (Q9NTG7 118-395): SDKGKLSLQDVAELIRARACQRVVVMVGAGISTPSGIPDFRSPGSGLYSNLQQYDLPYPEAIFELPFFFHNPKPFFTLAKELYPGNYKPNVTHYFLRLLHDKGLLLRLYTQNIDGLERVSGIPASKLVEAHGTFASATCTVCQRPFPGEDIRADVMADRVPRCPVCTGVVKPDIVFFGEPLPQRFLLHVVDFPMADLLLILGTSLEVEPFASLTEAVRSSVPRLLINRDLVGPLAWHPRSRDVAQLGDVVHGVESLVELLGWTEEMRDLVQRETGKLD
Protocol: as §1, §2, §3, §4

[1] = E→Z photoisomerization of azastilbenes under 254 nm irradiation, proton NMR analysis; format: physicochemical; conditions: after 100 minutes of 254 nm irradiation, 10 mM in methanol
Protocol: Photochemistry of compounds 2b and 2f was investigated via UV–vis spectroscopy, LC–HRMS and NMR spectroscopy. Compound 2b represents the core structure of the azastilbenes investigated, whereas in 2f the influence of ortho methylation was intended to be examined. For UV–vis spectroscopy 50 µM solutions in 5% DMSO (v/v) in enzyme assay buffer were used, as this reflects the enzyme assay conditions. However, for LC-HRMS and NMR analysis, a higher concentration of 10 mM in methanol was necessary to receive reliable chromatograms and spectra.
LC–HRMS analysis provided deeper insights and clarified the differential behaviour observed in the UV–vis spectra of 2b and 2f after UV irradiation. As anticipated, UV irradiation lead to E→Z isomerization of the C=C double bond in both compounds. […] Unfortunately, the amount of photoisomerization was only moderate, since after 100 minutes of continuous irradiation still substantial amounts of the (E)-isomers were present in the mixtures (Figure 3). Proton NMR analysis implied photostationary states comprising a relative percentage of 45% (Z)-2b and 57% (Z)-2f, respectively after 100 minutes of 254 nm irradiation. The NMR spectra can be found in Supporting Information File 1.
Photochemistry: All photoisomerization experiments were conducted under ruby light of 630 nm. […]

[2] = percent inhibition relative to controls

Sirt1 inhibition (Sirt1): complete inactivity and n.i.
Sirt2 inhibition (Sirt2; n.i. = no inhibition detected, tested at 100 µM, 50 µM and 10 µM): complete inactivity and n.i.
Sirt3 inhibition (Sirt3): complete inactivity and n.i.
melting point: 276.8 °C
Structure (SMILES): NC(=O)c1cnc2c(ccc3ccccc32)c1 [Compound 8a]

inhibition at 10 µM (Sirt1; [2]): 26%
inhibition at 10 µM (Sirt2): 21%
inhibition at 50 µM (Sirt3): 79%
relative percentage of (Z)-isomer in photostationary state [1]: 57%
Structure (SMILES): COc1cc(C)c(/C=C/c2cncc(C(N)=O)c2)c(C)c1 [Compound 2f]

Sirt1 inhibition (Sirt1): complete loss of activity and n.i.
inhibition at 10 µM (Sirt2): 48%
inhibition at 10 µM (Sirt3): 38%
Structure (SMILES): NC(=O)c1cncc(C2=Cc3ccccc3CC2)c1 [Compound 4a]

Sirt1 inhibition (Sirt1): n.i.
inhibition at 10 µM (Sirt2): 9%
Sirt3 inhibition (Sirt3): n.i.
Structure (SMILES): NC(=O)c1cncc(/C=C/c2cccc(NC(=O)c3ccc(OCc4ccccc4)cc3)c2)c1 [Compound 2h]

inhibition at 50 µM (Sirt1; [2]): 61%
inhibition at 50 µM (Sirt2): 69%
inhibition at 50 µM (Sirt3): 60%
Structure (SMILES): NC(=O)c1cncc(/C=C/c2cccc(OCc3ccccc3)c2)c1 [Compound 2e]

Sirt1 inhibition (Sirt1): complete loss of activity and n.i.
inhibition at 10 µM (Sirt2): 45%
inhibition at 10 µM (Sirt3): 38%
Structure (SMILES): NC(=O)c1cncc(-c2ccc3ccccc3c2)c1 [Compound 4b]

inhibition at 100 µM (Sirt1; @ 100 µM, percent inhibition relative to controls): 51%
IC50 (Sirt2): ~7 µM and 6.6 µM
IC50 (Sirt3): 7.5 ± 0.9 µM
Structure (SMILES): NC(=O)c1cncc(/C=C/c2ccc(F)cc2)c1 [Compound 2c, (E)-5-(4-Fluorostyryl)nicotinamide]

inhibition at 50 µM (Sirt1; [2]): 52%
inhibition at 50 µM (Sirt2): 62%
inhibition at 50 µM (Sirt3): 87%
Structure (SMILES): NC(=O)c1cncc(/C=C/c2ccc3c(c2)OCO3)c1 [Compound 2g]

inhibition at 10 µM (Sirt1; [2]): 71%
IC50 (Sirt2): 8.7 ± 0.2 µM
inhibition at 50 µM (Sirt3): 89%
relative percentage of (Z)-isomer in photostationary state [1]: 45%
Structure (SMILES): NC(=O)c1cncc(/C=C/c2ccccc2)c1 [Compound 2b, (E)-5-Styrylnicotinamide]

inhibition at 50 µM (Sirt1; [2]): 27%
IC50 (Sirt2): 24.6 ± 2.8 µM
IC50 (Sirt3): 41.7 ± 2 µM
Structure (SMILES): Cc1cc(O)cc(C)c1/C=C/c1cncc(C(N)=O)c1 [Compound 2a, reference compound]

inhibition at 10 µM (Sirt1; [2]): 51%
inhibition at 10 µM (Sirt2): 64%
inhibition at 50 µM (Sirt3): 90%
Structure (SMILES): COc1ccc(/C=C/c2cncc(C(N)=O)c2)cc1 [Compound 2d]
